The source of these data is ChEMBL document CHEMBL1151537 (Bioorg Med Chem Lett, 1994).

For assay [1], the species on record is Xenopus laevis. Put plainly: Agonistic activity was determined in a pigment aggregation model using cultured melanophores isolated from the neural crest of Xenopus laevis embryos; agonist. In kind it is functional. Particulars: frog; filed as agonist.
A further assay deals with Melatonin receptor (Gallus gallus, UniProt P49288+P51050+P49285). Put plainly: Binding affinity towards melatonin receptor using 2-[125I]iodomelatonin as radioligand in chick brain membranes. In kind it is cell membranes, Membrane.
The species entered for assay [2] is Xenopus laevis. Put plainly: Agonistic activity was determined in a pigment aggregation model using cultured melanophores isolated from the neural crest of Xenopus laevis embryoss; agonist. In kind it is functional. Particulars: frog; filed as agonist.
Assay [3] is filed under the species Xenopus laevis. Put plainly: Concentration producing half maximal aggregation of pigment granules in the centre of the melanophore isolated from the neural crest of Xenopus laevis embryos was determined. It is filed as functional, frog.
Assay [4] is filed under the species Xenopus laevis. Put plainly: Agonistic activity was determined in a pigment aggregation model using cultured melanophores isolated from the neural crest of Xenopus laevis embryos; partial. It is filed as functional. As to conditions: frog; filed as partial agonist.
For assay [5], the species on record is Xenopus laevis. The assay is described as follows: Agonistic activity was determined in a pigment aggregation model using cultured melanophores isolated from the neural crest of Xenopus laevis embryos; Partial. In kind it is functional. Particulars: frog; filed as partial agonist.

Broadly, the Ki is a dissociation constant, usually derived from enzyme kinetics or from competition with a known ligand. The low end stands for higher affinity, the high end for lower affinity. One may read the EC50 as the concentration at which the effect is half-maximal. A high value points to a less potent agent.

On to `COc1ccc2[nH]cc(CCNC(C)=O)c2c1`, for which, in the assay listed under Xenopus laevis [1], the Activity entry was “Agonist”.

`O=C(CBr)NCCc1c[nH]c2ccccc12`: the Ki on Melatonin receptor was found to be 153 nM.

Regarding `CC(=O)NCCc1c(-c2ccccc2)[nH]c2ccccc12`, the Activity result in the assay filed under Xenopus laevis [2] was “Agonist”. Besides, the EC50 in the assay filed under Xenopus laevis [3] is 70 nM.

As for `O=C(NCCc1c(Br)[nH]c2cc(Br)ccc12)C(F)(F)F`, the inhibitory constant (Ki) at Melatonin receptor is on record as 367 nM.

With `CC(=O)NCCc1c[nH]c2ccccc12`, the Ki at Melatonin receptor amounted to 701 nM.

Turning to `O=C(NCCc1c(-c2ccccc2)[nH]c2ccccc12)C(F)(F)F`, the Activity result in the assay filed under Xenopus laevis [4] was “Partial agonist”.

Regarding `CC(=O)NCCc1c(Br)[nH]c2cc(Br)ccc12`, on Melatonin receptor, the Ki came out at 122 nM. The Activity result in the assay listed under Xenopus laevis [4] is “Partial agonist”.

With `CCCC(=O)NCCc1c[nH]c2ccccc12`, the Activity result in the assay listed under Xenopus laevis [5] was “Partial agonist”. The molecule also yielded a Ki on Melatonin receptor of 98 nM.

`CCC(=O)NCCc1c(Br)[nH]c2cc(Br)ccc12` yielded a Ki at Melatonin receptor of 27 nM.

With `CCCC(=O)NCCc1c(Br)[nH]c2cc(Br)ccc12`, the inhibitory constant (Ki) at Melatonin receptor turned out to be 2.3 nM. For the same molecule, the Activity entry in the assay listed under Xenopus laevis [4] is “Partial agonist”.

On to `O=C(NCCc1c[nH]c2ccccc12)C1CC1`, for which, on Melatonin receptor, the inhibition constant Ki was 2600 nM.

On Melatonin receptor, `O=C(NCCc1c(Br)[nH]c2cc(Br)ccc12)C1CC1` showed a Ki of 138 nM. In addition, the Activity result in the assay listed under Xenopus laevis [1] is “Agonist”.

`O=C(CBr)NCCc1c(Br)[nH]c2ccccc12` returned a Ki on Melatonin receptor of 14 nM. The Activity entry in the assay listed under Xenopus laevis [1] is “Agonist”.

Turning to `CCC(=O)NCCc1c(-c2ccccc2)[nH]c2ccccc12`, in the assay filed under Xenopus laevis [1], the Activity entry was “Agonist”. In addition, the half-maximal effective concentration (EC50) in the assay listed under Xenopus laevis [3] stood at 50 nM.

Take `CC(=O)NCCc1c(Br)[nH]c2ccccc12`: the Ki on Melatonin receptor is 138 nM. Moreover, in the assay listed under Xenopus laevis [1], the Activity entry was “Agonist”.

`CCC(=O)NCCc1c[nH]c2ccccc12` yielded a Ki on Melatonin receptor of 398 nM.

On to `CCCC(=O)NCCc1c(-c2ccccc2)[nH]c2ccccc12`, for which, in the assay filed under Xenopus laevis [4], the Activity entry is “Partial agonist”.

Regarding `O=C(NCCc1c[nH]c2ccccc12)C(F)(F)F`, the Activity result in the assay listed under Xenopus laevis [5] is “Partial agonist”. The Ki at Melatonin receptor came to 377 nM.
